# Publication PMC11207335, “In Vitro Metabolism and Transport Characteristics of Zastaprazan” (Pharmaceutics, 2024)
# Columns and labels:
# [1] = target: T1, human cDNA-expressed CYP1A2 (Homo sapiens, UniProt P05177); test: Enzyme kinetics of JP-1366 metabolism in cDNA-expressed CYP1A2; format: in vitro ADME
# T1 construct: purchased Corning Life Sciences
# T1 sequence (P05177 1-516): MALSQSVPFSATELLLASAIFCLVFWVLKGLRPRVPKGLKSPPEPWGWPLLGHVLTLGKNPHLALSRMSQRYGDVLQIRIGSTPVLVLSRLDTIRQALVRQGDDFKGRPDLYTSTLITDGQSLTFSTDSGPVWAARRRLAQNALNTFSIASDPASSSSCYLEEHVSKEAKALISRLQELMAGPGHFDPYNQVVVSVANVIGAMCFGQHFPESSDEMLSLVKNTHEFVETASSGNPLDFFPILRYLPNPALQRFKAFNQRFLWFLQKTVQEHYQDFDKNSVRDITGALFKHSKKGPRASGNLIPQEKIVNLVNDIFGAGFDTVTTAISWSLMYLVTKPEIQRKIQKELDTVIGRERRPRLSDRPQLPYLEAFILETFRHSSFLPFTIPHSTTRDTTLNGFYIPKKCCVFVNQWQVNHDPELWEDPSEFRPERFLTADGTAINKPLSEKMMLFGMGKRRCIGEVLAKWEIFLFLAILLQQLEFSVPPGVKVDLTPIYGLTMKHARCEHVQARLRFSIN
# Method: (§1) The reaction was initiated by adding 5 μL of NADPH-generating system in triplicate, and the mixture was further incubated for 30 min at 37 °C in a shaking water bath.
# (§2) The concentrations of the metabolites were quantitated, and their formation rates (pmol/mg protein/min) were calculated by dividing the amounts of metabolites formed from the incubation with human liver microsomes and human cDNA-expressed CYP or UGT enzymes by the incubation time.
# [2] = test system: human liver microsomes (HLM); test: Enzyme kinetics of JP-1366 metabolism in human liver microsomes; format: in vitro ADME
# Method: as §1, §2
# [3] = cited from earlier work
# [4] = formation of the labelled metabolite from JP-1366, CYP1A2
Compound,"CLint [1, 4] [μL/min/pmol CYP]","n (Hill coefficient) [1, 4]",Contribution (%) ([1]; relative contribution of CYP1A2 to formation of the labelled metabolite),"Vmax ([2]; formation of the labelled metabolite from JP-1366, HLM) [pmol/min/mg protein]","Ki ([2]; substrate inhibition kinetics, formation of the labelled metabolite, HLM) [µM]","safety and tolerability ([3]; SAD up to 60 mg, MAD up to 40 mg, healthy male Korean subjects)","dose-normalized AUC among genetic variants of CYP2C19, CYP3A5, CYP2D6, UGT1A1, and UGT2B17 [3]"
"Cc1cccc(CO)c1CNc1cc(C(=O)N2CCC2)cn2c(C)c(C)nc12 [M1, azetidin-1-yl(8-((2-(hydroxymethyl)-6-methyl-benzyl)amino)-2,3-dimethylimidazo[1,2-a]pyridin-6-yl)methanone]",0.0014,0.6,0.1,826.1,96.5,,
"Cc1cccc(C)c1CNc1cc(C(=O)N2CCC2)cn2c(C)c(C)nc12 [JP-1366, 1-azetidinyl(8-(((2,6-dimethylphenyl)methyl)amino)-2,3-dimethylimidazo(1,2-a)pyridin-6-yl)methanone]",,,,,,safe and well tolerated,not significantly different
